Our source for the IC50, EC50 and Emax values is patent US11760761B2, “Methods and compositions for targeting PD-L1” (Aligos Therapeutics, Inc., priority 2020, dated 2023).

The target of one experiment is PDL1/PD1 (Homo sapiens (Human), UniProt Q9NZQ7). The experiment is described as follows: PDL1/PD1 Binding Assay. The following applies: PDL1-6xHis 0.3 nM, PD1-Fc-Avi-Biotin 2.5 nM, Acceptor/Donor beads; read-out: PD-1/PD-L1 PPI IC50. The method, then: Compounds to be tested were serially diluted in DMSO, and further diluted in assay buffer (25 mM Hepes pH 7.4, 150 mM NaCl, 0.005% Tween 20, BSA 0.01%). Diluted compounds were added to the wells with final concentration of DMSO at 1%. PDL1-6×His protein was added to the wells, mixed well with compound. The plates were incubated for 30 min at room temperature. PD1-Fc-Avi-Biotin protein was added to the wells. Final concentration of PDL1 and PD1 protein is 0.3 nM and 2.5 nM, respectively. After a binding time of 30 min at room temperature, Anti-6×His Acceptor beads (final concentration 20 ug/ml) were added to the wells, and the incubation continued for 1 h. Streptavidin Donor beads (final concentration 20 ug/mL) were added at reduced light. The plates were sealed with foil and incubated in the dark for additional 1 h or overnight before reading on an Envision reader. The IC50 values were determined by fitting the curves using a four-parameter equation in Graphpad Prism 8.

For another experiment, the target named is PD-1/PD-L1 interaction (Homo sapiens (Human), UniProt Q9NZQ7). The experiment is described as follows: PD-1/PD-L1 NFAT Reporter Assay (Jurkat T cells / PD-L1 expressing CHO cells co-culture). The experiment is classed as cell-based. The conditions noted are these: for EC50: co-culture 6 hrs at 37° C., luciferase; for Emax: Jurkat, maximum NFAT-activation level relative to the positive control (10 nM Atezolizumab). How it is done: Blocking the PD-1/PD-L1 interaction will release the inhibitory signal and results in TCR signaling and NFAT-mediated luciferase activity.
CHO cells expressing surface-bound anti-CD3 antibodies and PD-L1 were first seeded overnight and treated with the compounds. Jurkat cells overexpressing PD-1 and a luciferase construct under NF-AT promoter were then immediately seeded on the monolayer of CHO cells. The co-culture was then incubated for 6 hrs at 37° C. Luciferase activity was assessed by adding the ONE-Glo reagent and measuring luminescence with a plate reader. EC50s values were determined from the fit of the dose-response curves Emax (%) corresponds to the maximum NFAT-activation level reached by a given compound relative to the positive control (10 nM Atezolizumab).

Sequence of PDL1/PD1 (Q9NZQ7 19-238): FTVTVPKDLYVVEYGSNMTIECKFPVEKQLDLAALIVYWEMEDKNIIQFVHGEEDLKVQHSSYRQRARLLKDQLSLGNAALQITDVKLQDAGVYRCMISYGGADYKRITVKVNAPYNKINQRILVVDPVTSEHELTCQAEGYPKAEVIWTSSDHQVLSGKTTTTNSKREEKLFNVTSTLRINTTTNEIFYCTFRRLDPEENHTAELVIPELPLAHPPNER
Sequence of PD-1/PD-L1 interaction (Q9NZQ7 19-290): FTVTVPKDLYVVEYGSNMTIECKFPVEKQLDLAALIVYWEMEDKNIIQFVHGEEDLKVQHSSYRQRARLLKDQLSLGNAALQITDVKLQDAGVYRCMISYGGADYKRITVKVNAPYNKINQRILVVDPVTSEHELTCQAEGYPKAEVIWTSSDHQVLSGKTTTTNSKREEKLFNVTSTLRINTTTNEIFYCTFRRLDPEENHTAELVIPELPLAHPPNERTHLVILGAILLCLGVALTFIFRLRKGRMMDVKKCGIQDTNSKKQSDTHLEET

For the compound `CCOc1nc(-c2cccc(-c3cccc(-c4cnc(CN5CC6(CCC(=O)N6)C5)c(OC)n4)c3Cl)c2Cl)cc2c1C(NC[C@@H]1CCC(=O)N1)CC2` (stereo partly shown) [Compound C-12], the IC50 on PDL1/PD1 was at most 10 nM. The EC50 – broadly, the concentration that produces a half-maximal response – at PD-1/PD-L1 interaction fell in the range of 10 to 100 nM.
For `COc1nc(-c2cccc(-c3cccc(-c4cc5c(c(OC)n4)[C@H](N4CC6(CCC(=O)N6)C4)CC5)c3Cl)c2Cl)cnc1CN1CC2(CCC(=O)N2)C1` (single isomer, unassigned) [Compound C-4], on PDL1/PD1, the IC50 was at most 10 nM. The compound also yielded an EC50 at PD-1/PD-L1 interaction above 10000 nM.
Turning to `COc1cc(-c2cccc(-c3cccc(-c4cnc(CN5CC6(CCC(=O)N6)C5)c(OC)n4)c3Cl)c2Cl)cc2c1C[C@@H](N1CC3(CCC(=O)N3)C1)C2` (single isomer, unassigned) [Compound A-12], the IC50 at PDL1/PD1 was at most 10 nM. Further, on PD-1/PD-L1 interaction, the Emax (in general, the maximal effect, on the per cent scale that the assay sets) came to 191% and the EC50 was in the range of 10 to 100 nM.
Consider `COc1nc(-c2cccc(-c3cccc(-c4cc5c(c(OC)n4)[C@H](NC[C@@H]4CCC(=O)N4)CC5)c3Cl)c2Cl)cnc1CN1CC2(CCC(=O)N2)C1` [Compound C-2], for which the IC50 at PDL1/PD1 is at most 10 nM. Moreover, at PD-1/PD-L1 interaction, the 50% effective concentration (EC50) lay within 100 to 1000 nM.
For `COc1nc(-c2cccc(-c3cccc(-c4cc5c(c(OC)n4)C(N4CCN(C(C)=O)CC4)CC5)c3Cl)c2Cl)cnc1CN1CC2(CCC(=O)N2)C1` (stereo not shown) [Compound C-10], in that order: at most 10 nM and 10 to 100 nM.
In the case of `COc1nc(-c2cccc(-c3cccc(-c4cc5c(c(OCc6ccccn6)n4)C(NC[C@@H]4CCC(=O)N4)CC5)c3Cl)c2Cl)cnc1CN1CC2(CCC(=O)N2)C1` (stereo partly shown) [Compound C-15], at PDL1/PD1, the IC50 is at most 10 nM. Moreover, at PD-1/PD-L1 interaction, the EC50 is 10 to 100 nM.
Regarding `COc1cc(-c2cccc(-c3cccc(-c4cnc(CN5CC6(CCC(=O)N6)C5)c(OC)n4)c3Cl)c2Cl)cc2c1C[C@H](N1CC(O)C1)C2` (single isomer, unassigned) [Compound A-11], at PDL1/PD1, the IC50 is at most 10 nM. On PD-1/PD-L1 interaction, this compound showed a maximal response (Emax) of 84% and an EC50 of 1000 to 10000 nM.
With `CCOC(=O)C1CN([C@@H]2CCc3cc(-c4cccc(-c5cccc(-c6cnc(CN7CC8(CCC(=O)N8)C7)c(OC)n6)c5Cl)c4Cl)cc(OC)c32)C1` (single isomer, unassigned) [Compound A-4], the IC50 on PDL1/PD1 was at most 10 nM. This compound gave an Emax at PD-1/PD-L1 interaction of 18%.
Consider `COc1nc(-c2cccc(-c3cccc(-c4cc5c(c(OC)n4)[C@H](NC[C@@H]4CCC(=O)N4)CC5)c3Cl)c2Cl)cnc1CN1CC(O)C1` [Compound D-7], for which, at PDL1/PD1, the IC50 is at most 10 nM. The compound further had an EC50 at PD-1/PD-L1 interaction of 100 to 1000 nM.
Take `COc1nc(-c2cccc(-c3cccc(-c4cc5c(c(OC)n4)[C@H](N4CC6(CN(C(C)=O)C6)C4)CC5)c3Cl)c2Cl)cnc1CN1CC2(C1)CN(C(C)=O)C2` (single isomer, unassigned) [Compound D-19]: the IC50 at PDL1/PD1 is at most 10 nM. This compound also displayed an EC50 at PD-1/PD-L1 interaction of at most 10 nM.
`COc1nc(-c2cccc(-c3cccc(-c4cc5c(c(OC)n4)[C@@H](N4CC6(CCC(=O)N6)C4)CC5)c3Cl)c2Cl)cnc1CNC[C@@H]1CCC(=O)N1` (single isomer, unassigned) [Compound D-15]: the IC50 on PDL1/PD1 is at most 10 nM. For the same compound, at PD-1/PD-L1 interaction, the EC50 is 10 to 100 nM.
In the case of `CCOC(=O)C1CN([C@@H]2CCc3cc(-c4cccc(-c5cccc(-c6cnc(CN7CC(OC)C7)c(OC)n6)c5Cl)c4Cl)nc(OC)c32)C1` (single isomer, unassigned) [Compound G-6], the IC50 on PDL1/PD1 is at most 10 nM. In addition, the EC50 on PD-1/PD-L1 interaction was in the range of 1000 to 10000 nM.
As for `COc1nc(-c2cccc(-c3cccc(-c4cc5c(c(OC)n4)[C@@H](NC[C@@H]4CCC(=O)N4)CC5)c3Cl)c2Cl)cnc1CN1C[C@@H](O)[C@@H]1C` [Compound D-13], the IC50 on PDL1/PD1 was at most 10 nM. Also, the EC50 at PD-1/PD-L1 interaction is at most 10 nM.
For `COc1nc(-c2cccc(-c3cccc(-c4cc5c(c(OC)n4)[C@H](N4CC(C(=O)O)C4)CC5)c3Cl)c2Cl)cnc1CN1C[C@@H](O)[C@@H]1C` (single isomer, unassigned) [Compound H-6], the IC50 on PDL1/PD1 was at most 10 nM. The same compound had an EC50 on PD-1/PD-L1 interaction of 100 to 1000 nM.
Turning to `COc1cc(-c2cccc(-c3cccc(-c4cnc(CN5CC6(CCC(=O)N6)C5)c(OC)n4)c3Cl)c2Cl)cc2c1C[C@H](N1CC3(CCC(=O)N3)C1)C2` (single isomer, unassigned) [Compound A-13], the IC50 at PDL1/PD1 was at most 10 nM. At PD-1/PD-L1 interaction, this compound yielded an Emax of 58% and an EC50 of 1000 to 10000 nM.
Take `COc1cc(-c2cccc(-c3cccc(-c4cnc(CN5CC6(CCC(=O)N6)C5)c(OC)n4)c3Cl)c2Cl)cc2c1[C@@H](N1CC3(CCC(=O)N3)C1)CC2` (single isomer, unassigned) [Compound A-7]: on PDL1/PD1, the IC50 is at most 10 nM. The same compound displayed an Emax on PD-1/PD-L1 interaction of 24%.
With `COc1nc(-c2cccc(-c3cccc(-c4cc5c(c(OC)n4)C(NC4CN(C(C)=O)C4)CC5)c3Cl)c2Cl)cnc1CN1CC2(CCC(=O)N2)C1` (stereo not shown) [Compound C-8], the IC50 at PDL1/PD1 was at most 10 nM. Also, on PD-1/PD-L1 interaction, the EC50 was 10 to 100 nM.
As for `COc1nc(-c2cccc(-c3cccc(-c4cc5c(c(OC)n4)[C@@H](NC[C@@H]4CCC(=O)N4)CO5)c3Cl)c2Cl)cc(C)c1CN1CC2(C1)CN(C(C)=O)C2` (single isomer, unassigned) [Compound E-4], at PDL1/PD1, the IC50 was at most 10 nM. On PD-1/PD-L1 interaction, this compound registered an EC50 of at most 10 nM.
As for `COc1nc(-c2cccc(-c3cccc(-c4cc5c(c(OC)n4)C(N4CCC(C(=O)O)CC4)CC5)c3Cl)c2Cl)cnc1CN1CC(O)C1` (stereo not shown) [Compound F-3], on PDL1/PD1, the IC50 is at most 10 nM. The EC50 on PD-1/PD-L1 interaction lay in the range of 10 to 100 nM.
In the case of `COc1nc(-c2cccc(-c3cccc(-c4cc5c(c(OC)n4)[C@@H](N4CC6(CCC(=O)N6)C4)CC5)c3Cl)c2Cl)cnc1CN1CC2(CCC(=O)N2)C1` (single isomer, unassigned) [Compound C-3], the IC50 at PDL1/PD1 is at most 10 nM. The EC50 on PD-1/PD-L1 interaction was at most 10 nM.
For `COc1nc(-c2cccc(-c3cccc(-c4cc5c(c(OC)n4)CCN(CC(=O)O)C5)c3Cl)c2Cl)cnc1CN1CC(O)(C(F)(F)F)C1` [Compound J-3], the IC50 at PDL1/PD1 is at most 10 nM. For the same compound, at PD-1/PD-L1 interaction, the EC50 fell in the range of 1000 to 10000 nM.
With `COc1nc(-c2cccc(-c3cccc(-c4cc5c(c(OC)n4)C(N4CC6(CN(C(C)=O)C6)C4)CC5)c3Cl)c2Cl)cnc1CN1CC2(CCC(=O)N2)C1` (stereo not shown) [Compound C-11], the IC50 at PDL1/PD1 was at most 10 nM. This compound also displayed an EC50 at PD-1/PD-L1 interaction of 10 to 100 nM.
For `COc1nc(-c2cccc(-c3cccc(-c4cc5c(c(OCC6CC6)n4)C(NC[C@@H]4CCC(=O)N4)CC5)c3Cl)c2Cl)cnc1CN1CC2(CCC(=O)N2)C1` (stereo partly shown) [Compound C-14], in that order: at most 10 nM and 10 to 100 nM.
For `COc1nc(-c2cccc(-c3cccc(-c4cc5c(c(OC)n4)[C@@H](NC[C@@H]4CCC(=O)N4)CC5)c3Cl)c2Cl)cnc1CN1CCCC1` [Compound D-11], in that order: at most 10 nM and at most 10 nM.
Take `COc1nc(-c2cccc(-c3cccc(-c4cc5c(c(OC)n4)[C@@H](NC[C@@H]4CCC(=O)N4)CC5)c3Cl)c2Cl)ccc1CN1CC2(CCC(=O)N2)C1` [Compound E-3]: the IC50 on PDL1/PD1 is at most 10 nM. In addition, on PD-1/PD-L1 interaction, the EC50 is at most 10 nM.
Turning to `COc1nc(-c2cccc(-c3cccc(-c4cc5c(c(OC)n4)CCN(CC(=O)O)C5)c3Cl)c2Cl)cnc1CN1CC(C)(O)C1` [Compound J-2], the IC50 at PDL1/PD1 is at most 10 nM. This compound also yielded an EC50 on PD-1/PD-L1 interaction of 10 to 100 nM.
Turning to `COc1cc(-c2cccc(-c3cccc(-c4cnc(CN5CC6(CCC(=O)N6)C5)c(OC)n4)c3Cl)c2Cl)cc2c1C[C@@H](N1CC(O)C1)C2` (single isomer, unassigned) [Compound A-10], on PDL1/PD1, the IC50 is at most 10 nM. On PD-1/PD-L1 interaction, this compound showed an Emax of 172% and an EC50 of 10 to 100 nM.
Consider `COc1nc(-c2cccc(-c3cccc(-c4cc5c(c(OC)n4)[C@@H](NC[C@@H]4CCC(=O)N4)CC5)c3Cl)c2Cl)cnc1CN1CC(O)C1` [Compound D-8], for which the IC50 at PDL1/PD1 was at most 10 nM. Besides, at PD-1/PD-L1 interaction, the half-maximal effective concentration (EC50) was at most 10 nM.
Regarding `COc1nc(-c2cccc(-c3cccc(-c4cc5c(c(OC)n4)[C@@H](NC[C@@H]4CCC(=O)N4)CC5)c3Cl)c2Cl)cnc1CN1CC(F)C1` [Compound D-4], the IC50 on PDL1/PD1 was at most 10 nM. Also, the EC50 at PD-1/PD-L1 interaction lay in the range of 10 to 100 nM.
In the case of `COc1cc(-c2cccc(-c3cccc(-c4cnc(CN5CC6(CCC(=O)N6)C5)c(OC)n4)c3Cl)c2Cl)cc2c1[C@@H](N1CC(C(=O)O)C1)CC2` (single isomer, unassigned) [Compound B-3], the IC50 on PDL1/PD1 was at most 10 nM. In addition, at PD-1/PD-L1 interaction, the maximal effect (Emax) was found to be 112% and the EC50 is 100 to 1000 nM.
In the case of `COc1cc(-c2cccc(-c3cccc(-c4cnc(CN5CC6(CCC(=O)N6)C5)c(OC)n4)c3Cl)c2Cl)cc2c1[C@H](N1CC(O)C1)CC2` (single isomer, unassigned) [Compound A-6], the IC50 on PDL1/PD1 was at most 10 nM. The Emax at PD-1/PD-L1 interaction came out at 32%.
Take `COc1cc(-c2cccc(-c3cccc(-c4cnc(CN5CC6(CCC(=O)N6)C5)c(OC)n4)c3Cl)c2Cl)cc2c1[C@@H](N1CC(O)C1)CC2` (single isomer, unassigned) [Compound A-5]: the IC50 on PDL1/PD1 was at most 10 nM. On PD-1/PD-L1 interaction, this compound displayed an Emax of 102% and an EC50 of 100 to 1000 nM.
